Broadly, the clearance is the volume of plasma or blood freed of the substance per unit of time. The fraction unbound is the share of the substance not bound to proteins or other matrix. As usually defined, the IC50 is the concentration that gives 50% inhibition. Usually logD stands for lipophilicity at a set pH, counting ionised and neutral species. Read a low logD as a more hydrophilic compound.

The nature of data set [1]: Total clearance in Wistar rat plasma at 0.5 mg/kg, iv. The format is ADME, organism-based.
A short description of data set [2]: Metabolic stability in rat hepatocytes assessed as intrinsic clearance per 10^6 cells at 1 uM by LC-MS/MS analysis. The format is ADME, cell-based, Hepatocyte.
Data set [3] can be described thus: Protein binding in dog plasma assessed as fraction unbound at 1 uM incubated for 6 hrs by rapid equilibrium dialysis based LC-MS/MS analysis. Type of data set: ADME, cell-free, Canis lupus familiaris. (In equilibrium dialysis free small molecules cross a membrane that holds back macromolecules.)
The target in data set [4] is T1, C-X-C chemokine receptor type 3 (Homo sapiens, UniProt P49682).
T1 sequence (P49682 whole entry): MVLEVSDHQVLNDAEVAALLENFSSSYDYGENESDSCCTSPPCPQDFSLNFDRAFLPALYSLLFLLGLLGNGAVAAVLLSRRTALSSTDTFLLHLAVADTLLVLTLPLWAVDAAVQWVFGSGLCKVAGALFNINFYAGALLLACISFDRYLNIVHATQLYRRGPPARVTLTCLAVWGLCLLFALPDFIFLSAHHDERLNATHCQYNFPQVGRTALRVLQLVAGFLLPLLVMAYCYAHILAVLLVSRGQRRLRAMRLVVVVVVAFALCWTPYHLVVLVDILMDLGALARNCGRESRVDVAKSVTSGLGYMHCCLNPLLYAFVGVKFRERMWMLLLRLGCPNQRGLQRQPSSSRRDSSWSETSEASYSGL
In words: Antagonist activity at CXCR3 (unknown origin) in human T cells in venous blood assessed as receptor internalization incubated for 30 mins in presence of CXCL10 by flow cytometric analysis. The format is cell-based, T cell. On the technique in general: A flow cytometer gives signals particle by particle.

Data set [5] is described as follows: Metabolic stability in rat liver microsomes assessed as intrinsic clearance at 1 uM and measured upto 15 mins in presence of NADPH regenerating system by LC-MS/MS analysis. The format is ADME, Microsome. The note with it: read-out: CLH. In general terms: Liver microsomes are vesicles of endoplasmic reticulum, rich in cytochrome P450 enzymes.
The nature of data set [6]: Lipophilicity, log D of compound. Type of data set: physicochemical. Particulars: octanol/water.
Data set [7] can be described thus: Metabolic stability in dog liver microsomes assessed as intrinsic clearance at 1 uM and measured upto 15 mins in presence of NADPH regenerating system by LC-MS/MS analysis. Type of data set: ADME, Canis lupus familiaris, Microsome. The note with it: read-out: CLH.
Data set [8] is described as follows: Drug excretion in urine of Wistar rat assessed as unchanged drug at 3 mg/kg, iv. The note with it: read-out: Drug excretion. The format is ADME, organism-based.
The nature of data set [9]: Unbound clearance in Beagle dog plasma at 1 mg/kg, iv. Particulars: in vivo. Type of data set: ADME, organism-based, Canis lupus familiaris.
The nature of data set [10]: Total clearance in Beagle dog plasma at 1 mg/kg, iv. Type of data set: ADME, organism-based, Canis lupus familiaris.
Data set [11] can be described thus: Protein binding in human plasma assessed as fraction unbound at 1 uM incubated for 6 hrs by rapid equilibrium dialysis based LC-MS/MS analysis. The format is ADME, cell-free.
Data set [12] is described as follows: Unbound clearance in Wistar rat plasma at 0.5 mg/kg, iv. The format is ADME, organism-based. The note with it: in vivo.
A short description of data set [13]: Metabolic stability in human hepatocytes assessed as intrinsic clearance per 10^6 cells at 1 uM by LC-MS/MS analysis. The format is ADME, cell-based, Hepatocyte.
Data set [14] in a line: Metabolic stability in dog hepatocytes assessed as intrinsic clearance per 10^6 cells at 1 uM by LC-MS/MS analysis. The format is ADME, cell-based, Canis lupus familiaris, Hepatocyte.
Data set [15] is described as follows: Metabolic stability in human liver microsomes assessed as intrinsic clearance at 1 uM and measured upto 15 mins in presence of NADPH regenerating system by LC-MS/MS analysis. Type of data set: ADME, Microsome. The note with it: read-out: CLH.
The target of data set [16] is Voltage-gated inwardly rectifying potassium channel KCNH2 (Homo sapiens, UniProt Q12809). In words: Inhibition of human ERG stably expressed in CHO cells at -80 mV holding voltage by automated QPatch electrophysiological assay. The format is toxicity, cell-based.
The nature of data set [17]: Protein binding in rat plasma assessed as fraction unbound at 1 uM incubated for 6 hrs by rapid equilibrium dialysis based LC-MS/MS analysis. The format is ADME, cell-free.
A further data set concerns the target CYP3A4 (Homo sapiens, UniProt P08684). The data set can be described thus: […] recombinant human CYP3A4 mediated drug metabolism in human liver microsomes assessed as intrinsic clearance at 1 uM incubated for 45 mins in presence of NADPH regenerating system by LC-MS/MS analysis. Type of data set: ADME, Microsome. The note with it: read-out: CLH.
The target of another data set is CYP2D6 (Homo sapiens, UniProt P10635). The data set can be described thus: (§1) […] recombinant human CYP2D6 mediated drug metabolism in human liver microsomes assessed as intrinsic clearance at 1 uM incubated for 45 mins in presence of NADPH regenerating system by LC-MS/MS analysis. The note with it: recombinant human CYP2D6, read-out: CLH. Type of data set: ADME, Microsome.

A short description of data set [18]: Drug excretion in urine of Wistar rat assessed as unchanged drug at 0.5 mg/kg, iv. Type of data set: ADME, organism-based. Particulars: read-out: Drug excretion.
In a further data set the target is Cytochrome P450 2D6 (Homo sapiens, UniProt P10635). The description is as §1. Type of data set: ADME, Microsome. Particulars: microsomes, 0.75 h, 1 µM.
Sequence of Cytochrome P450 2D6 (P10635 whole entry): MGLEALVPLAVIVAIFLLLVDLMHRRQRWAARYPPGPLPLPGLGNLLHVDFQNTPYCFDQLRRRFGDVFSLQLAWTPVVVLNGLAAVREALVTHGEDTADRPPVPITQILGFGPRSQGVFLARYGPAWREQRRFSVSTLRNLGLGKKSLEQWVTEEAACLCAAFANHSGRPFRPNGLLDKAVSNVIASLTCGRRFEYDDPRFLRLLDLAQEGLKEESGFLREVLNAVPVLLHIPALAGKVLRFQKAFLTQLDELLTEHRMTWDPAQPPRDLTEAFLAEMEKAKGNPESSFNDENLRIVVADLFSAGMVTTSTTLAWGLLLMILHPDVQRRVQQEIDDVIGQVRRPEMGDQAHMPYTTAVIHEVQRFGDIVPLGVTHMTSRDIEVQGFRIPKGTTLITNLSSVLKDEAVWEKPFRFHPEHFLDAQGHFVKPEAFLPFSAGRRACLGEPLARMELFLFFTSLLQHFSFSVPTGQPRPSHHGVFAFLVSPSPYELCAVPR

Sequence of CYP3A4 (P08684 whole entry): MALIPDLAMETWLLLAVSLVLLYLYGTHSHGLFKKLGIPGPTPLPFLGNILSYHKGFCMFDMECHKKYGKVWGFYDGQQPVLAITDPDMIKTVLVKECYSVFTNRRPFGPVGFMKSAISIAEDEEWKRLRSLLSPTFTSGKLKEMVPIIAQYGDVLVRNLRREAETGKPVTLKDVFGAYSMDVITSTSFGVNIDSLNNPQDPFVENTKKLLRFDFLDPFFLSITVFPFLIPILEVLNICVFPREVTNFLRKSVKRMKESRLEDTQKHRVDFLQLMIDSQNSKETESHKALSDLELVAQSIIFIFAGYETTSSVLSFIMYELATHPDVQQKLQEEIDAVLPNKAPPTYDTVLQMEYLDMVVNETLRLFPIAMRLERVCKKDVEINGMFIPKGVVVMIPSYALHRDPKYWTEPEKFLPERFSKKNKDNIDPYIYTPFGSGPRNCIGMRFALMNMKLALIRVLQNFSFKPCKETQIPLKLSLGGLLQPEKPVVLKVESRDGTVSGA
Sequence of Voltage-gated inwardly rectifying potassium channel KCNH2 (Q12809 whole entry): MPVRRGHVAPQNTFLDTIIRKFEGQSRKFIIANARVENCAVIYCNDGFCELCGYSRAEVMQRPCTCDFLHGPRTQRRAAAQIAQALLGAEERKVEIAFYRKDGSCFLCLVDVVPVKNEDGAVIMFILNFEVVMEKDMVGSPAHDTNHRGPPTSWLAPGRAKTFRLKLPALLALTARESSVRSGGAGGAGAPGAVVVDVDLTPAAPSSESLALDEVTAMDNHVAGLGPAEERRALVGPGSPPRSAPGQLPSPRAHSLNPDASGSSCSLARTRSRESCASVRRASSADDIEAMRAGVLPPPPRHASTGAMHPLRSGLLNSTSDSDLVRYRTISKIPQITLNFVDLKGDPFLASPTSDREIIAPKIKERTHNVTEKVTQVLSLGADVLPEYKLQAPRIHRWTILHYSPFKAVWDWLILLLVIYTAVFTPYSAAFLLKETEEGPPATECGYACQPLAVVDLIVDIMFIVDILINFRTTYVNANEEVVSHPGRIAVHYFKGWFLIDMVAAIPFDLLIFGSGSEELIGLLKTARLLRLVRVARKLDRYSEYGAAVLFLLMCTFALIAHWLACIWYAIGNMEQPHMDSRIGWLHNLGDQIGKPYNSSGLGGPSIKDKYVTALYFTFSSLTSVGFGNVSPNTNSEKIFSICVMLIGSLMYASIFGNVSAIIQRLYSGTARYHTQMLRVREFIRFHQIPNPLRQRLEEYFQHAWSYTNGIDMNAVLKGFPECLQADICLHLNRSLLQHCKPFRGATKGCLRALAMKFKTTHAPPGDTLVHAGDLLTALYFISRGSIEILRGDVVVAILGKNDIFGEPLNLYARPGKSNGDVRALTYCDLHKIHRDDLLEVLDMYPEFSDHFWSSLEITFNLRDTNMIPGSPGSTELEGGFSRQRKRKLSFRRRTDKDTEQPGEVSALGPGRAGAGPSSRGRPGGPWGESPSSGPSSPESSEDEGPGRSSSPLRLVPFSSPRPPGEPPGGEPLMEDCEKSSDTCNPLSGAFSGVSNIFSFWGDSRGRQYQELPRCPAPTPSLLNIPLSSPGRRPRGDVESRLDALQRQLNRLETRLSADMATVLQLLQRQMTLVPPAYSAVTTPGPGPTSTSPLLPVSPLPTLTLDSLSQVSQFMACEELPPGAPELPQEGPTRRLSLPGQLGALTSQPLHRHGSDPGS
Sequence of CYP2D6 (P10635 whole entry): as the sequence (P10635 whole entry) above

As to `Cc1ccn(CC(=O)N2CCN(c3sc(C(F)(F)F)nc3-c3cnc(C(F)(F)F)nc3)C[C@@H]2CO)n1`, the clearance in data set [1] was 7.1 mL/min/kg; in data set [10] it was 22 mL/min/kg. For the same molecule, the CLH in data set [2] was 2.8 µL/min/mg; in [13], less than 2 µL/min/mg; in [14] it was 2.4 µL/min/mg. Moreover, the fraction unbound at 6 h, 1 µM in [3] came out at 0.22; in [11], 0.11; in data set [17], 0.01. The IC50 in [4] was 0.0746 µM; in [16], 21 µM. For the same molecule, the microsomal CLint at 1 µM was 13 µL/min/mg in data set [5]; 16 µL/min/mg in data set [7]; less than 10 µL/min/mg in data set [15]; 1.18 µL/min/mg at CYP3A4; 0.41 µL/min/mg at CYP2D6. In data set [6], this molecule registered a log distribution coefficient (logD) of 3. Further, the dose excreted in [8] was found to be 1%. Moreover, the figures for the CL free in [9] and in data set [12] were 100 mL/min/kg and 710 mL/min/kg, respectively.

As for `CCc1ncn(CC(=O)N2CCN(c3sc(C(F)(F)F)nc3-c3cnc(C(F)(F)F)nc3)C[C@H]2CCO)n1`, the clearance stood at 14 mL/min/kg in data set [1] and 19 mL/min/kg in [10]. Besides, the CLH is 3.2 µL/min/mg in data set [2], less than 2 µL/min/mg in data set [13], less than 2 µL/min/mg in [14] and 0.09 µL/min/mg on Cytochrome P450 2D6. Moreover, the unbound share (fraction unbound) at 6 h, 1 µM in data set [3] is 0.3; in data set [11] it was 0.15; in data set [17], 0.045. Besides, the IC50 in data set [4] amounted to 0.0449 µM; in [16], 9.8 µM. Moreover, the microsomal CLint at 1 µM in data set [5] was 13 µL/min/mg; in data set [7], less than 10 µL/min/mg; in data set [15], less than 10 µL/min/mg; on CYP3A4, 0.33 µL/min/mg. The molecule further yielded a logD in [6] of 2.8. Further, the CL free in data set [9] was 64 mL/min/kg; in data set [12] it was 311 mL/min/kg. Besides, in [18], the dose excreted was found to be 37%.
